For data set [1], the system named is mice receiving 20 Gy of abdominal radiation. Put plainly: Survival following whole-abdominal irradiation (Kaplan-Meier). In kind it is in vivo. As to conditions: 20 Gy abdominal radiation, DMOG treatment vs none (FIG. 5). From the text: FIG. 5 depicts Kaplan-Meier survival analysis of mice following whole-abdominal irradiation (20 Gy) with and without DMOG treatment. p=0.03 (n=12).

Another data set concerns GI epithelia. Put plainly: FITC-dextran assay of the GI tract (epithelial integrity) after irradiation. In kind it is in vivo, mice. As to conditions: 20 Gy; gavage 0.6 mg/kg FITC-dextran (4 kD); measured four hours later (FIG. 4). On the procedure: FIG. 4 depicts the concentration of FITC-Dextran present in the serum of mice gavaged with 0.6 mg./kg. FITC-Dextran (4 kD) either with or without irradiation and with or without DMOG. Six mice were tested per experimental condition. *p<0.04
Mortality from GI radiotoxicity results from compromised epithelial integrity manifesting as uncontrolled diarrhea or infections from enteric pathogens due to decreased barrier function. To test whether a PHD inhibitor would increase epithelial integrity after radiation insult, a FITC-dextran assay of the GI tract was performed. FITC-dextran cannot cross the GI epithelia, thus its presence in serum is an indication of compromised epithelial integrity. Following irradiation (20 Gy), mice underwent gavage, with the insertion of 0.6 mg/kg of FITC-dextran (4 kD). Four hours later, levels of FITC-dextran were measured in the blood. Treatment with DMOG results in a 3.5-fold decrease in the presence of FITC-dextran in the serum relative to saline control (FIG. 4).

For the next data set, the system named is HIF-2. Put plainly: Western blot for HIF-2 in colonic crypts after DMOG injection. In kind it is in vivo, male C57Bl/6 mice. As to conditions: 8 mg DMOG intraperitoneally; 4-12 after DMOG administration. As to the method: (§1) FIG. 1 depicts a Western blot for HIF-1, HIF-2, and β-actin in colonic crypts at the time points indicated after DMOG injection (8 mg.) Each lane represents a different animal.
(§2) In order to assess the kinetic effects of DMOG on the HIF-1 and HIF-2 protein levels, male C57Bl/6 mice were injected with 8 mg. of DMOG intraperitoneally and colonic crypts were harvested at various time points after injection (FIG. 1). A 8 mg dose results in the elevation of HIF1 and HIF2 proteins 4-12 after DMOG administration as determined by Western blot analysis.

Another data set deals with HIF-1. Put plainly: Western blot for HIF-1 in colonic crypts after DMOG injection. Type of data set: in vivo, male C57Bl/6 mice. To be noted: 8 mg DMOG intraperitoneally; 4-12 after DMOG administration. As to the method: as §1, §2
A short description of data set [2]: Mortality, GI toxicity and gross intestinal morphology after DMOG injection. In kind it is in vivo, male C57Bl/6 mice. To be noted: 8 mg DMOG intraperitoneally, mice.
The subject of another data set is intestinal stem cells. Put plainly: Microcolony analysis of colon crypt regeneration after 20 Gy abdominal irradiation. In kind it is in vivo, mice. As to the method:
FIG. 2 is a graphical depiction of the crypts identified in transverse sections of colon stained with hematoxylin-eosin (H & E) after they were treated with saline or DMOG 16 hours before radiation, 4 hours before radiation, and then every 24 hours after receiving 20 Gy of abdominal radiation. The data represents the combined results from 8 mice receiving either DMOG or saline. Sixteen sections were analyzed per mouse. *p<0.006.
FIG. 3 is a graphical depiction of the crypts identified in transverse sections of colon stained with H & E in mice irradiated before administration of DMOG. Mice were treated with saline or DMOG 2 hours after receiving 20 Gy of abdominal radiation and then once every 24 hours thereafter for 4.5 days. x-axis, left bar mice treated with saline, right bar mice treated with DMOG; y-axis regenerated crypts. *p<0.005.
Radio- and chemotoxicity to the GI tract is the result of damage to the intestinal stem cell located within the crypts of Lieberkühn. The intestinal stem cell, defined by its expression of LGR5 is the most rapidly dividing cell in the GI tract and is therefore susceptible to genotoxic damage. […]

Consider `COC(=O)CNC(=O)C(=O)OC` [DMOG, N-(methoxyoxoacetyl)-glycine methyl ester], for which, in data set [1], the overall survival entry is “dramatically improved”. Besides, in the data set on GI epithelia, the “decrease in FITC-dextran in the serum relative to saline control” value was found to be 3.5 fold. Besides, the “HIF2 protein level in colonic crypts (Western blot)” value with HIF-2 is reported as “elevation”. Besides, in the data set on HIF-1, the “HIF1 protein level in colonic crypts (Western blot)” value is on record as “elevation”. In addition, the “gross morphological changes in the intestine” value in data set [2] is given as “nor was there obvious gross morphological changes in the intestine”. Also, in data set [2], the “mortality or GI toxicity” value was “no observed increase in mortality or GI toxicity”. The “enrichment in regenerative capacity of colon relative to saline alone (regenerated crypts)” value in the data set on intestinal stem cells (8 mg DMOG prior to 20 Gy whole-abdomen irradiation, then daily, sacrifice 4.5 days post irradiation (FIG. 2)) came out at 2 fold; with intestinal stem cells (DMOG administered after 20 Gy whole-abdomen irradiation (2 hours after, then every 24 hours), 4.5 days (FIG. 3)), 2 fold.

These data come from patent US20140315999A1, “USE OF PROLYL H[…] A RADIOPROTECTIVE DRUG FOR THE LOWER GASTROINTESTINAL TRACT” (priority 2011, published 2014).
